Earlier results in patent publication US7825159B2, “Mixtures of aromatic esters for marking or tagging organic products, marker compositions comprising the same and manufacturing methods thereof” (United Color Manufacturing, Inc., priority 2006, dated 2010).

What was measured:
[1] = with less than 28 wt. % n-octylpyrolidinone co-solvent, even with vigorous stirring
[2] = with less than 28 wt. % n-octylpyrolidinone co-solvent

SMILES: CCCC(=O)Oc1ccc(C2(c3ccc(OC(=O)CCC)c(C)c3)OC(=O)c3ccccc32)cc1C [Cresolphthalein dibutyrate]
- Dispersion into diesel fuel [1]: will not disperse
- Precipitation on standing overnight in the freezer [2]: precipitates
